Results as given in ChEMBL document CHEMBL4330132, “5-Keto-3-cyano-2,4-diaminothiophenes as selective maternal embryonic leucine zipper kinase inhibitors” (Bioorg Med Chem Lett, 2019).

How the values were obtained:
[1] = target: NUAK family SNF1-like kinase 1 (Homo sapiens) (UniProt O60285); test: Binding affinity to wild-type human partial length ARK5 (E25 to I332 residues) expressed in bacterial expression system assessed as residual binding level at 1 uM by Kinomescan method relative to control
Sequence of NUAK family SNF1-like kinase 1 (Homo sapiens) (O60285 whole entry, the tested form may be a part): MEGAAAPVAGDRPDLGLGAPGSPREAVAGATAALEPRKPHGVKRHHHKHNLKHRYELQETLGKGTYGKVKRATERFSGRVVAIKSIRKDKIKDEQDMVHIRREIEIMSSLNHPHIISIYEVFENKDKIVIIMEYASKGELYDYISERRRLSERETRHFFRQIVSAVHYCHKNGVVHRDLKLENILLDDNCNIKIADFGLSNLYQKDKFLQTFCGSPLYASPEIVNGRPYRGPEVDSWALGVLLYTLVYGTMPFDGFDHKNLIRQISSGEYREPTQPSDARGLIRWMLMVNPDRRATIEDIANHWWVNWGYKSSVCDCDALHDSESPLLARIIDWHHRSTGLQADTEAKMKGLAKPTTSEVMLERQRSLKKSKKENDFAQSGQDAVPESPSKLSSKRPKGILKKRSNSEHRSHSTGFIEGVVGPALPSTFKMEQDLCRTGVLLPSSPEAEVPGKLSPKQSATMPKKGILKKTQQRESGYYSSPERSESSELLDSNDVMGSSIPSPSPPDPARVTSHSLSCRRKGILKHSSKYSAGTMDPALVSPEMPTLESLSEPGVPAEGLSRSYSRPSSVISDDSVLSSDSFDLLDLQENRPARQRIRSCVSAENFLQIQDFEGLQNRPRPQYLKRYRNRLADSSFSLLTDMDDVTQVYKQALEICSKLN

[2] = target: Dual specificity tyrosine-phosphorylation-regulated kinase 2 (Homo sapiens) (UniProt Q92630); test: Binding affinity to wild-type human full length DYRK2 (M1 to S528 residues) expressed in mammalian expression system assessed as residual binding level at 1 uM by Kinomescan method relative to control
Sequence of Dual specificity tyrosine-phosphorylation-regulated kinase 2 (Homo sapiens) (Q92630 whole entry, the tested form may be a part): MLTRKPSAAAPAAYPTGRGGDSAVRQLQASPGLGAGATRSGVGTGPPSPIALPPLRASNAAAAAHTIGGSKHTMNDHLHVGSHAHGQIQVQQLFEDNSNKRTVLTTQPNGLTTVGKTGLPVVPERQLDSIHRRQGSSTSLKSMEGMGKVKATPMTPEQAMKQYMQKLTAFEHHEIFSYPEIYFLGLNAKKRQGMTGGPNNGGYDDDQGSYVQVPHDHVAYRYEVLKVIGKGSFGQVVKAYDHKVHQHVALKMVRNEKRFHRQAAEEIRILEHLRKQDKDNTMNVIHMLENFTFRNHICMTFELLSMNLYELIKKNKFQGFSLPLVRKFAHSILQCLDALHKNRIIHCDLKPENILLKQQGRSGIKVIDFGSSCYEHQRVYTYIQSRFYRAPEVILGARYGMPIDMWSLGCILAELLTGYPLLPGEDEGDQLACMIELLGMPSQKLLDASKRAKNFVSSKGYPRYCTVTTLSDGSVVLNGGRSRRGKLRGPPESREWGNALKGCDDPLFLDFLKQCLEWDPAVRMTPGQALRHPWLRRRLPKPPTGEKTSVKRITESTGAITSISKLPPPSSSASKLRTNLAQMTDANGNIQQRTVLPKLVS

[3] = target: G protein-coupled receptor kinase 4 (Homo sapiens) (UniProt P32298); test: Binding affinity to wild-type human full length GRK4 (M1 to C578 residues) expressed in bacterial expression system assessed as residual binding level at 1 uM by Kinomescan method relative to control
Sequence of G protein-coupled receptor kinase 4 (Homo sapiens) (P32298 whole entry, looked up, the tested form may be a part): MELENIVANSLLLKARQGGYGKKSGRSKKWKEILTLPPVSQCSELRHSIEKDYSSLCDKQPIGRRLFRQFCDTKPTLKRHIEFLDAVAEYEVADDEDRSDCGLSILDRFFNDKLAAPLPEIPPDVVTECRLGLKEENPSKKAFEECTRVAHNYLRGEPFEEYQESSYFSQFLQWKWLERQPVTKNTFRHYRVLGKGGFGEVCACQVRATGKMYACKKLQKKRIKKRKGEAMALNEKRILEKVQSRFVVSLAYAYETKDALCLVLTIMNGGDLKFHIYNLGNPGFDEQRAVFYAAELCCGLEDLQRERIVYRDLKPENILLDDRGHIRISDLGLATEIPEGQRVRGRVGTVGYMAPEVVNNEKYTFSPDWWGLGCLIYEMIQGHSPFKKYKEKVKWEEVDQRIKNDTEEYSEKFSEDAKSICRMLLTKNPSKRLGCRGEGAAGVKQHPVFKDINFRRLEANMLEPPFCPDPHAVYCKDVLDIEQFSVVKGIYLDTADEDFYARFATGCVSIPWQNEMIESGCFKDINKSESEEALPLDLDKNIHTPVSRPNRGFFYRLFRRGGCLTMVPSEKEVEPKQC

[4] = target: Insulin receptor (Homo sapiens) (UniProt P06213); test: Binding affinity to wild-type human partial length INSR (P997 to E1318 residues) expressed in mammalian expression system assessed as residual binding level at 1 uM by Kinomescan method relative to control
Sequence of Insulin receptor (Homo sapiens) (P06213 28-758 limits assumed): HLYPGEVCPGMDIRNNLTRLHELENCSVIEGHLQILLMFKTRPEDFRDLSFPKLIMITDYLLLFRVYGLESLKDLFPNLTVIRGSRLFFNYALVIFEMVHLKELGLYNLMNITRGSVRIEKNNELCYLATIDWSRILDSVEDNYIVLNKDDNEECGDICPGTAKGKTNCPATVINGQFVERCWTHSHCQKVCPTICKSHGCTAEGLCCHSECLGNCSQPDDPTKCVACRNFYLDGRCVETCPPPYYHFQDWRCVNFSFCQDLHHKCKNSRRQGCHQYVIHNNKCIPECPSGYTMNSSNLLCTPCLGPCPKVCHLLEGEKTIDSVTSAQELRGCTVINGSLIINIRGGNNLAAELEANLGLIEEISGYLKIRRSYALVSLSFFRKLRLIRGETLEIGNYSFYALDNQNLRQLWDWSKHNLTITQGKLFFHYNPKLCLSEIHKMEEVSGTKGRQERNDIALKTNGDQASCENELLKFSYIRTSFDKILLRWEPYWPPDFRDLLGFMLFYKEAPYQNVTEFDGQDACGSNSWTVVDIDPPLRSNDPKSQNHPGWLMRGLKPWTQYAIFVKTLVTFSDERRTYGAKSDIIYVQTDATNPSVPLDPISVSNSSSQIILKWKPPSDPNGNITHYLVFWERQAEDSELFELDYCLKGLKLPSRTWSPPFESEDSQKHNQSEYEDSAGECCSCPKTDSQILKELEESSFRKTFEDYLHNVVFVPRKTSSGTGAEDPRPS
Sequence of Insulin receptor (Homo sapiens) (P06213 763-1382 limits assumed): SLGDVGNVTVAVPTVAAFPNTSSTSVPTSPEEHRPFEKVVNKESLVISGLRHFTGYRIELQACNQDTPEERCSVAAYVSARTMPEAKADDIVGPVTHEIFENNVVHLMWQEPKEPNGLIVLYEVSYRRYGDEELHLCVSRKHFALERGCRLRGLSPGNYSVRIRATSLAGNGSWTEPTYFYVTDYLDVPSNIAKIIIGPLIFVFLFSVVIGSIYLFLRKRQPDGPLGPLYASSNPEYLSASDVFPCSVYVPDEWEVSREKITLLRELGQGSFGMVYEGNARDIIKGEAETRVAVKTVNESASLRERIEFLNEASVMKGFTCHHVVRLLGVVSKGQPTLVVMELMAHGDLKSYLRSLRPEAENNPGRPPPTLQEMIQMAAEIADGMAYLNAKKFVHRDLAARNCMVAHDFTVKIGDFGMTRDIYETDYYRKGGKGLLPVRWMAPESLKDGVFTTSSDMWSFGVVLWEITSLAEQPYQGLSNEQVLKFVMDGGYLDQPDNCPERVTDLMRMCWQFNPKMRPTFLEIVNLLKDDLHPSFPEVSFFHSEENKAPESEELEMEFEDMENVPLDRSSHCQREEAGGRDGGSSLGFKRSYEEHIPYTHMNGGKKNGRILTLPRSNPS

[5] = target: MAP kinase-activated protein kinase 5 (Homo sapiens) (UniProt Q8IW41); test: Binding affinity to wild-type human partial length MAPKAPK5 (M1 to D322 residues) expressed in mammalian expression system assessed as residual binding level at 1 uM by Kinomescan method relative to control
Sequence of MAP kinase-activated protein kinase 5 (Homo sapiens) (Q8IW41 whole entry, the tested form may be a part): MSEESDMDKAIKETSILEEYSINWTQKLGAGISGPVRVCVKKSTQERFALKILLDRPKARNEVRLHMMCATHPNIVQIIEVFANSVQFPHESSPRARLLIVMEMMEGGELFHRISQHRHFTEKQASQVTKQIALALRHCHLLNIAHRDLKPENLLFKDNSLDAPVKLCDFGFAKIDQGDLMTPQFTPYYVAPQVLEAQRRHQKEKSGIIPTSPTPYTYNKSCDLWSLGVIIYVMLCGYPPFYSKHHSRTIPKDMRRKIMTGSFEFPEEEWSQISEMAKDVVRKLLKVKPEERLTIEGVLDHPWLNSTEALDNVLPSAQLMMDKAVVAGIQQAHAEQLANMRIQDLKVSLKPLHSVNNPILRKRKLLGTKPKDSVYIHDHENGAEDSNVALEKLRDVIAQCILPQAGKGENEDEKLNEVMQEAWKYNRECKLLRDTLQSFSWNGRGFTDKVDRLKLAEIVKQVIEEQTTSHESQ

[6] = target: BDNF/NT-3 growth factors receptor (Homo sapiens) (UniProt Q16620); test: Binding affinity to wild-type human partial length TRKB (Q547 to G838 residues) expressed in mammalian expression system assessed as residual binding level at 1 uM by Kinomescan method relative to control
Sequence of BDNF/NT-3 growth factors receptor (Homo sapiens) (Q16620 32-822 limits assumed): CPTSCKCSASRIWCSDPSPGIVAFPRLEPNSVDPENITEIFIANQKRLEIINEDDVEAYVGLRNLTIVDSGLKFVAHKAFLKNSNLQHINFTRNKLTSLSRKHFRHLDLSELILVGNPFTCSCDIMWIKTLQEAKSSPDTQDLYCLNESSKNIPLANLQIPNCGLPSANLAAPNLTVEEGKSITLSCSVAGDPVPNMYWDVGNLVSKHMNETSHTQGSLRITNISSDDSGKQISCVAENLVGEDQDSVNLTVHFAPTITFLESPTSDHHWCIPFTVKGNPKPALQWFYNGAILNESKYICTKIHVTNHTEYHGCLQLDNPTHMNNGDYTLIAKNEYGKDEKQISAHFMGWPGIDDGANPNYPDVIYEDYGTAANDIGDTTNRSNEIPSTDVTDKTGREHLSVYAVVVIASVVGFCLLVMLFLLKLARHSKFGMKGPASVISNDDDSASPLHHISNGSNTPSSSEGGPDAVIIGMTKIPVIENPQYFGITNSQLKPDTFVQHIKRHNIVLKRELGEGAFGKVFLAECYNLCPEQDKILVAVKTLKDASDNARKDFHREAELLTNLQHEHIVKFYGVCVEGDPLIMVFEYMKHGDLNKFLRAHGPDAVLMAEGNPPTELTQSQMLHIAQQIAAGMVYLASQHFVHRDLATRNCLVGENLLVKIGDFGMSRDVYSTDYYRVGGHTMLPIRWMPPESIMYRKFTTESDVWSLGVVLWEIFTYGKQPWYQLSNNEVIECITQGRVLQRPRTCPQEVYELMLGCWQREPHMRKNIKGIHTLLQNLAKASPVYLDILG

Compound `CC(C)Nc1sc(C(=O)c2ccc(Cl)s2)c(N)c1C#N` has an Activity [1] of 82%, an Activity [2] of 100% and an Activity [3] of 74%. The Activity [4] was 80%, the Activity [5] was 91% and the Activity [6] was 70%.
